Values joined by “and” are separate entries in the source; they are usually repeats but may differ in a detail not shown here. Equal values may be shown once. Numbers after ± are expanded uncertainties.

The conditions of series [1]: 298.15 K; for surface tension liquid-gas: Pendant drop shape; for mass density: 101.33 kPa, Liquid.
The nature of series [2]: xn = mol fraction of the nth substance listed. The settings on record: 298.15 K, Pendant drop shape.

For `C1CCOC1` [tetrahydrofuran], in series [1], the surface tension liquid-gas was 27.04 ± 0.29 mN/m and the mass density stood at 882.06 ± 0.21 kg/m3.

As for `C1CCOC1` [tetrahydrofuran] + Cc1cc(C)cc(C)c1, in series [2] (x1 = 1), the surface tension liquid-gas was 27.04 ± 0.29 mN/m.

As to `Cc1ccc(C)c(C)c1` [1,2,4-trimethylbenzene], in series [1], the surface tension liquid-gas stood at 29.25 ± 0.33 mN/m and the mass density is reported as 871.64 ± 0.41 kg/m3.

With `C[S+](C)[O-]` [dimethyl sulfoxide], in series [1], the surface tension liquid-gas came out at 42.09 ± 0.43 mN/m and the mass density is recorded as 1095.54 ± 0.42 kg/m3.

With `Cc1cc(C)cc(C)c1` [1,3,5-trimethylbenzene] + ClC(Cl)(Cl)Cl, the surface tension liquid-gas in series [2] (x1 = 1) worked out at 26.76 ± 0.3 mN/m.

Take `Cc1cc(C)cc(C)c1` [1,3,5-trimethylbenzene]: in series [1], the surface tension liquid-gas is 28.09 ± 0.31 mN/m and 26.76 ± 0.3 mN/m; the mass density was 861.03 ± 0.38 kg/m3.

As for `Cc1ccc(C)c(C)c1` [1,2,4-trimethylbenzene] + C1CCOC1, the surface tension liquid-gas in series [2] (x2 = 0) was determined as 29.25 ± 0.33 mN/m; in series [2] (x2 = 0.0988), 29.11 ± 0.32 mN/m; in series [2] (x2 = 0.2018), 29 ± 0.32 mN/m; in series [2] (x2 = 0.3003), 28.88 ± 0.31 mN/m; in series [2] (x2 = 0.3995) it was 28.73 ± 0.31 mN/m; in series [2] (x2 = 0.5002), 28.53 ± 0.3 mN/m. For the same compound, the surface tension liquid-gas came to 28.29 ± 0.3 mN/m in series [2] (x2 = 0.6005), 28.01 ± 0.3 mN/m in series [2] (x2 = 0.6986), 27.68 ± 0.29 mN/m in series [2] (x2 = 0.7996) and 27.34 ± 0.29 mN/m in series [2] (x2 = 0.9006).

As to `C[S+](C)[O-]` [dimethyl sulfoxide] + Cc1cc(C)cc(C)c1, the surface tension liquid-gas in series [2] (x1 = 1) is reported as 42.09 ± 0.43 mN/m.

Consider `ClC(Cl)(Cl)Cl` [tetrachloromethane], for which, in series [1], the surface tension liquid-gas was 27.76 ± 0.3 mN/m and 26.76 ± 0.29 mN/m and 28.09 ± 0.3 mN/m; the mass density is given as 1583.8 ± 0.76 kg/m3.

For `ClC(Cl)(Cl)Cl` [tetrachloromethane] + Cc1ccc(C)c(C)c1, the surface tension liquid-gas in series [2] (x1 = 1) was 26.76 ± 0.29 mN/m.

Consider `C1CCOC1` [tetrahydrofuran] + Cc1ccc(C)c(C)c1, for which the surface tension liquid-gas in series [2] (x1 = 1) is 27.04 ± 0.29 mN/m.

Consider `Cc1cc(C)cc(C)c1` [1,3,5-trimethylbenzene] + C1CCOC1, for which the surface tension liquid-gas in series [2] (x2 = 0) turned out to be 28.09 ± 0.31 mN/m; in series [2] (x2 = 0.0481) it was 27.88 ± 0.31 mN/m; in series [2] (x2 = 0.2021), 27.72 ± 0.3 mN/m; in series [2] (x2 = 0.3002) it was 27.57 ± 0.3 mN/m; in series [2] (x2 = 0.4), 27.44 ± 0.3 mN/m; in series [2] (x2 = 0.5004) it was 27.32 ± 0.29 mN/m. In addition, the surface tension liquid-gas stood at 27.23 ± 0.29 mN/m in series [2] (x2 = 0.601), 27.15 ± 0.29 mN/m in series [2] (x2 = 0.7003), 27.09 ± 0.29 mN/m in series [2] (x2 = 0.7989) and 27.06 ± 0.29 mN/m in series [2] (x2 = 0.9).

As to `Cc1ccc(C)c(C)c1` [1,2,4-trimethylbenzene] + ClC(Cl)(Cl)Cl, the surface tension liquid-gas in series [2] (x2 = 0) was found to be 29.25 ± 0.33 mN/m; in series [2] (x2 = 0.0496) it was 29.13 ± 0.32 mN/m; in series [2] (x2 = 0.0996) it was 29.04 ± 0.32 mN/m; in series [2] (x2 = 0.1986) it was 28.89 ± 0.32 mN/m; in series [2] (x2 = 0.3001), 28.72 ± 0.32 mN/m; in series [2] (x2 = 0.4006), 28.5 ± 0.31 mN/m. The surface tension liquid-gas in series [2] (x2 = 0.5987) is recorded as 28.24 ± 0.31 mN/m; in series [2] (x2 = 0.6986), 27.89 ± 0.3 mN/m; in series [2] (x2 = 0.7985), 27.54 ± 0.3 mN/m; in series [2] (x2 = 0.9011), 27.13 ± 0.29 mN/m.

For the compound `Cc1cc(C)cc(C)c1` [1,3,5-trimethylbenzene] + C[S+](C)[O-], the surface tension liquid-gas in series [2] (x2 = 0) worked out at 28.09 ± 0.31 mN/m; in series [2] (x2 = 0.1023), 27.3 ± 0.3 mN/m; in series [2] (x2 = 0.1987), 26.92 ± 0.3 mN/m; in series [2] (x2 = 0.3027), 26.7 ± 0.3 mN/m; in series [2] (x2 = 0.401), 27.41 ± 0.3 mN/m; in series [2] (x2 = 0.4999), 28.4 ± 0.31 mN/m. Further, the surface tension liquid-gas in series [2] (x2 = 0.6003) stood at 30.09 ± 0.33 mN/m; in series [2] (x2 = 0.699), 32.05 ± 0.34 mN/m; in series [2] (x2 = 0.8003) it was 34.77 ± 0.37 mN/m; in series [2] (x2 = 0.8998) it was 37.92 ± 0.39 mN/m.

`C[S+](C)[O-]` [dimethyl sulfoxide] + Cc1ccc(C)c(C)c1: the surface tension liquid-gas in series [2] (x1 = 1) is listed as 42.09 ± 0.43 mN/m.

For `Cc1ccc(C)c(C)c1` [1,2,4-trimethylbenzene] + C[S+](C)[O-], the surface tension liquid-gas turned out to be 29.25 ± 0.33 mN/m in series [2] (x2 = 0); 28.48 ± 0.32 mN/m in series [2] (x2 = 0.1007); 28.77 ± 0.32 mN/m in series [2] (x2 = 0.2007); 28.81 ± 0.32 mN/m in series [2] (x2 = 0.3007); 29.1 ± 0.32 mN/m in series [2] (x2 = 0.3995); 29.46 ± 0.32 mN/m in series [2] (x2 = 0.501). The surface tension liquid-gas in series [2] (x2 = 0.6012) came out at 29.34 ± 0.32 mN/m; in series [2] (x2 = 0.6992), 29.35 ± 0.32 mN/m; in series [2] (x2 = 0.7992), 30.04 ± 0.33 mN/m; in series [2] (x2 = 0.9013), 35.71 ± 0.38 mN/m.

For `ClC(Cl)(Cl)Cl` [tetrachloromethane] + Cc1cc(C)cc(C)c1, the surface tension liquid-gas in series [2] (x2 = 0) stood at 28.09 ± 0.3 mN/m; in series [2] (x2 = 0.1009) it was 27.77 ± 0.3 mN/m; in series [2] (x2 = 0.2014), 27.53 ± 0.3 mN/m; in series [2] (x2 = 0.2994) it was 27.29 ± 0.3 mN/m; in series [2] (x2 = 0.4007), 27.1 ± 0.3 mN/m; in series [2] (x2 = 0.4998), 26.99 ± 0.3 mN/m. Further, the surface tension liquid-gas is 26.91 ± 0.3 mN/m in series [2] (x2 = 0.5995), 26.86 ± 0.3 mN/m in series [2] (x2 = 0.6988), 26.83 ± 0.3 mN/m in series [2] (x2 = 0.797) and 26.81 ± 0.3 mN/m in series [2] (x2 = 0.9012).

The record behind these values is the NIST ThermoML archive (doi:10.1021/je0497294).
